# Test results published in PMC5059921, “Chalepin: isolated from Ruta angustifolia L. Pers induces mitochondrial mediated apoptosis in lung carcinoma cells” (BMC Complementary and Alternative Medicine, 2016).
# Read-outs that look alike come from different tables or passages of the source.
# Tests used:
# [1] = system: caspase 9 in A549 cells; assay: Caspase-9 activity (CaspILLUME, flow cytometry); format: cell-based, human; details: 45 μg/ml
# Procedure: (§1) Caspase activity assays were performed according to the instructions in the manual (CaspILLUME, Genetex). Cells were seeded at a density of 1×10^6 cells per culture dish. After being subjected to treatment for 48 and 72 h, the cells were detached with accutase, washed, and resuspended in PBS. Next, 300 μL of each sample was aliquoted into centrifuge tubes, after which 1 μL of fluorescent substrate (FITC-DEVD-FMK for caspase 3 and FITC-LEHD-FMK for caspase 9 activity) was added to each tube and incubated for 1 h at 37°C incubator. At the end of the incubation period, the cells were centrifuged at 3000 rpm for 5 min and the supernatant was removed. After that, the cells were resuspended in 0.5 mL wash buffer (provided in the kit) and centrifuged at 3000 rpm for 5 min. This step was repeated before performing the analysis with flow cytometer (Accuri C6) and a minimum of 10,000 events were acquired for each replicate.
# [2] = system: caspase 3 in A549 cells; assay: Caspase-3 activity (CaspILLUME, flow cytometry); format: cell-based, human; details: for active caspase 3, V1-R (apoptotic population): 45 ug/ml; for fold increase of caspase 3 activity vs untreated control: 45 μg/ml
# Procedure: as §1
# [3] = system: A549 cells; assay: DNA fragmentation by APO-BrdU TUNEL assay; format: cell-based, human
# Procedure: DNA strand breaks in apoptotic cells caused by the activation of endonucleases, were detected by APO-BrdU TUNEL assay kit. After incubation with various concentrations of chalepin at 48 and 72 h, cells were harvested and washed with PBS. Next, the cells were fixed with 1 % (w/v) paraformaldehyde for 15 mins, then washed with PBS, and fixed with 70 % (v/v) ethanol overnight. Ethanol was removed by centrifugation and DNA labeling steps were performed according to the manual provided in the kit. Samples were analyzed by flow cytometer and a minimum of 10,000 events were acquired for each replicate.
# [4] = system: hepatitis C virus, hepatoma cell line (Huh7.5); parameters: method as in PMID 25454460; details: cited from earlier work
# [5] = system: A549 cells; assay: Intracellular ROS measurement (DCFH-DA); format: cell-based, human; details: A549, 45 μg/ml, 6 h incubation
# Procedure: The assay was conducted as described by Ling et al. with some minor modifications. The ROS measurement was done using the fluorescent probe 2’,7’-dichlorofluorescein diacetate (DCFH-DA) that enabled the monitoring of intracellular accumulation of ROS. The A549 cells were seeded into a 96 well plate with a density of 2×10^4 cells per well and allowed to attach overnight. Treatment with chalepin at various concentrations were done the next day and incubated for different time periods. At the end of the incubation period, the media was removed and 5 μM of DCFH-DA which is diluted in media was added to the cells and incubated for 40 min at 37 °C. The cells were then washed three times with clear media and the fluorescence intensity (excitation = 485 nm and emission = 530 nm) was measured using a microplate reader. The morphology of the cells were observed using a fluorescence microscope.
# [6] = system: A549 cell line; assay: SRB in vitro cytotoxicity screening; format: cell-based, human
# Procedure: The human cell lines A549 (lung cancer) and Ca Ski (cervical cancer) were cultured as monolayer in RPMI 1640 growth media whereas HCT-116 (colon cancer) and MRC5 (human normal lung fibroblasts) was cultured in McCoy’s 5A and EMEM medium, respectively. All cells were purchased from the […] (ATCC, USA). All the media were supplemented with 10 % v/v foetal bovine serum (FBS), 100 μg/mL penicillin/streptomycin, and 50 μg/mL amphotericin B. The cells were cultured in a 5 % CO2 incubator at 37 °C.
# The monolayer cell culture was detached using accutase and the cell count was adjusted to 2.5 x10^5 -3.0 x10^5 cells/mL using medium containing feotal bovine serum. The cells were then plated into 96 wells with a cell density of 5000-7000 cells/well and then incubated for 24 h to allow adherence of cells to the base of well of the plates. The media was then removed and 200 μl of fresh media containing different concentration of various extracts or isolated compounds were added. Cisplatin was used as the positive control. The plates were incubated for 24, 48 and 72 h at 37 °C and 5 % CO2. The cytotoxicity of the extracts and isolated compounds were screened using the […] (SRB) assay. This assay was first described by Houghton in 2007 [8]. The incubation was halted by gentle addition of 50 μl ice cold 4 % trichloroacetic acid (TCA) to each well and the plates were incubated at 4 °C for 1 h. Then, the supernatant was discarded and the plates were washed with distilled water for 5 times and then air dried. SRB dye, 50 μl, (0.4 % w/v) was added into each well and the treated cells and control were incubated at room temperature for 30 min. The unbound dye was removed by rapid washing four times with 1 % acetic acid. The plates were then air dried and 100 μl of tris base (10 mM unbuffered, pH 10.5) was added and the plates were shaken at 500 rpm for 5 min to solublize the bound SRB stain. The plates were then read with an ELISA reader (Synergy H1 Hybrid) at an absorbance of 492 nm.
structure (smiles),measurement,setting,value
"C=CC(C)(C)c1cc2cc3c(cc2oc1=O)O[C@H](C(C)(C)O)C3 [Chalepin, chalepin]","active caspase 9, V1-R (apoptotic population)","[1]; A549, 48 h",22.57 ± 0.21%
same,"active caspase 9, V1-R (apoptotic population)","[1]; A549, 72 h",33.5 ± 0.35%
same,fold increase in activation of caspase 9 vs untreated control,"[1]; A549, 72 h",8.44 fold
same,"active caspase 3, V1-R (apoptotic population)","[2]; A549, 48 h",26.40 ± 0.79%
same,fold increase of caspase 3 activity vs untreated control,"[2]; A549, 48 h",9.32 fold
same,"active caspase 3, V1-R (apoptotic population)","[2]; A549, 72 h",49.07 ± 0.63%
same,fold increase of caspase 3 activity vs untreated control,"[2]; A549, 72 h",8.71 fold
same,"DNA fragmentation, R3 (TUNEL positive cells)","[3]; A549, 48 h, 45 μg/ml",38.5 ± 0.70%
same,"DNA fragmentation, R3 (TUNEL positive cells)","[3]; A549, 72 h, 36 μg/ml",73.50 ± 0.20%
same,"DNA fragmentation, R3 (TUNEL positive cells)","[3]; A549, 72 h, 45 μg/ml",66.50 ± 0.29%
same,replication of hepatitis C virus,[4],stop the replication
same,ROS fold increase vs untreated control,[5],62.24 fold
same,IC50,"[6]; Homo sapiens, A549, 48 h, isolated compounds, 48 h, value in brackets, read-out: IC50 in μg/ml (μM) (A549) 48 h (converted)",90.1 µM
same,IC50,"[6]; Homo sapiens, A549, 48 h, isolated compounds, 48 h, read-out: IC50 in μg/ml (μM) (A549) 48 h (converted)",28.3 ± 1.06 µg/mL
same,IC50,"[6]; Homo sapiens, A549, 72 h, isolated compounds, 72 h, read-out: IC50 in μg/ml (μM) (A549) 72 h (converted)",8.69 ± 2.43 µg/mL
same,IC50,"[6]; Homo sapiens, A549, 72 h, read-out: IC50 in μg/ml (μM) (A549) 72 h, isolated compounds, 72 h, value in brackets",27.6 µM
same,IC50,"[6]; isolated compounds, 72 h, value in brackets, read-out: IC50 in μg/ml (μM) (A549) 72 h (converted)",28 µM
